Laboratory results taken from a melting point compilation (Tetko et al.).

| melting point [°C] | Structure (SMILES) |
| --- | --- |
| 83.5 | Nc1ccccc1CO |
| 100 | N#CC(C#N)=C(CC=O)c1ccc(Cl)cc1 |
| 43 | CC1CCC(C(C)C)C(OC(=O)C(Cc2ccccc2)Cc2ccccc2)C1 (configuration not stated) |
| 119 | CCNC(=O)C(C)OC(=O)Nc1ccccc1 (configuration not stated) |
| 94 | C=Cc1ccccc1C(=O)O |
| 58 | Clc1cccc2cc[nH]c12 |
| 236 | COC(=O)C1=C(C)NC(=O)N(C=O)C1c1ccccc1 (configuration not stated) |
| 200 | Cc1c(NN=C2C(=O)NN=C2c2c(O)c3ccccc3n(C)c2=O)c(=O)n(-c2ccccc2)n1C |
| 140 to 141 | Cc1nc(-c2ccc(N)cc2)cs1 |
| 140 | CCC(c1ccc2cc(OC)ccc2c1)C(C)(C)C(=O)O (configuration not stated) |
| 271 to 274 | O=C(O)c1ccc(-c2cccnc2)cc1 |
| 71 | Cc1cc(C)n(CN(Cc2ccccc2)Cn2nc(C)cc2C)n1 |
| 120 | CC(C)[C@@H]1CC[C@H](C)C[C@@H]1OC(=O)c1cccc(C(=O)O)n1 |
| 164 to 166 | OCCCc1nc2ccccc2[nH]1 |
| 150 | COc1ccc(N/N=C(\C#N)c2nc(-c3ccccc3)cs2)cc1 |
| 175 to 177 | CCOC(=O)c1c(NC(=S)Nc2cccc(Cl)c2)sc2c1CCCC2 |
| -100 | C=COCC(CC)CCCC (configuration not stated) |
| -35 | CCCCCC=CCC=CCCCCCCCC(=O)OC |
| 200 | Cn1c(C(=O)O)cc2occc21 |
| 219 to 220 | C/C(=N\CCc1ccccn1)c1c(O)c2ccccc2n(-c2ccccc2)c1=O |
| 139 to 141 | OC1(c2ccc(Cl)cc2)CCNCC1 |
| 109 to 111 | Nc1cccc2nonc12 |
| 240 | CSC[C@H](N)C(=O)O |
| 54.5 | CCCCCCCCCCCCCCCCCCCC(=O)OC |

| melting point [°C] | Structure (SMILES) |
| --- | --- |
| 246 | CCCN(CCC)CCc1cccc2c1CC(=O)N2 |
| 195 to 201 | Cc1ccc(O)c(I)n1 |
| 164 to 165 | O=[N+]([O-])c1coc2ccc(O)cc12 |
| 91 | CC(=O)OCCOc1cc(OCCOC(C)=O)c([N+](=O)[O-])cc1[N+](=O)[O-] |
| 165 to 166 | COc1ccc(Br)c(C(=O)NN)c1 |
| 64 | Cc1ccc(CO)cc1C |
| 88 | O=Cc1cccc2cc[nH]c12 |
| 223 to 227 | O=c1oc(=O)c2ccccc2c2ccccc12 |
| 71 to 72 | Cc1nc(-c2cccc(CBr)c2)no1 |
| 116 | O=C(O)Cc1ccccc1I |
| -90 | CCOC(CC(OCC)OCC)OCC |
| 208 to 212 | O=C(O)c1ncccc1O |
| 140 to 142 | CCSC(SCC)C(O)C(O)C(O)C(O)CO (configuration not stated) |
| 127 to 129 | NC(=S)N1CCCCC1 |
| 89.5 | COc1ccc(C(C)=O)cc1O |
| 215 | CC1=NNC(=O)C1=NNc1ccc(Cl)cc1 |
| 102 to 104 | Cc1ccc(Sc2ncccc2C(=O)Cl)cc1 |
| 174 | ClCc1c(Cl)c(Cl)c(CCl)c(Cl)c1Cl |
| 37 | Fc1cc(F)c(Br)c(Br)c1 |
| 87 | Cc1cc(N(C)C)nc(Cl)n1 |
| 205 | NC(=O)c1sc(Nc2ccccc2)nc1N |
| 142 to 145 | COc1cc(OC)c(C#N)c(OC)c1 |
| 222 to 223 | COc1ccc(C=C2SC(=S)N(CN3CCCCC3)C2=O)cc1 |
| 172 to 173 | COc1nsc(N)n1 |

| melting point [°C] | Structure (SMILES) |
| --- | --- |
| 144 to 145 | O=C(O)c1snnc1-c1ccccc1 |
| 76 to 77 | Cn1nc(-c2cccs2)cc1C=O |
| 118 | O=C1c2ccccc2C(=O)N1CC#CCCl |
| 145 to 147 | COc1cc2c(cc1OC)C(c1ccc(O)cc1)N(C(C)=O)CC2 (configuration not stated) |
| 92 to 95 | COc1ccc(C=CC(=O)c2ccc3ccccc3c2)cc1 |
| 168 to 171 | Cc1ccc(C(=O)[C@@H]2CCCC[C@H]2C(=O)O)cc1 (relative stereo) |
| 49 | O=C(N(Cc1ccccc1)Cc1ccccc1)C(F)(F)C(F)(F)C(F)(F)C(F)(F)C(F)(F)C(F)(F)C(F)(F)C(F)(F)F |
| 47.5 | O=Cc1ccnc(Cl)c1 |
| 188 | Nc1ccc(Nc2ccc([N+](=O)[O-])cc2[N+](=O)[O-])cc1 |
| 171 | COc1ccc(C(=O)CCC(=O)O)cc1F |
| 44 | CC(=O)CCCCC(C)=O |
| 84.2 | CCCCCCCCCCCCCCCCCCCCCCCC(=O)O |
| 147 | [O-][P+](O)(O)CCN(CP(c1ccccc1)c1ccccc1)CP(c1ccccc1)c1ccccc1 |
| 59 | O=[N+]([O-])c1ccccc1-n1cccc1 |
| 178 | COC(=O)CCC(C)C1CCC2C3C(OC(C)=O)CC4CC(OC(C)=O)CCC4(C)C3CC(=O)C12C (configuration not stated) |
| 155 | Cc1ccc(/C=C2\CN(S(=O)(=O)c3ccc(C)cc3)c3ccccc3N2S(=O)(=O)c2ccc(C)cc2)cc1 |
| 92 to 93.5 | CCOC(=O)c1cnc2c(c(C)nn2C)c1Oc1ccc(OC)cc1 |
| -47 | CCC(CO)[N+](=O)[O-] (configuration not stated) |
| 105 | CCOC(=O)c1ccc(N/C=C2\C(=O)C3(C)CCC2C3(C)C)cc1 (configuration not stated) |
| 140 | O=C(O)CCCCCC1NC(=O)CS1 (configuration not stated) |
| 124 | Cc1ccccc1NC(=S)C(=O)c1ccccc1 |
| 179 | Brc1cnc2[nH]ccc2c1 |
| 38 to 39 | CNCc1ccc(N2CCOCC2)s1 |
| 177 | CC(=O)N(CC(O)CO)c1c(I)c(C(=O)NCC(O)CO)c(I)c(C(=O)NCC(O)CO)c1I (configuration not stated) |

| melting point [°C] | Structure (SMILES) |
| --- | --- |
| 99 | NNc1c(F)cc(F)cc1F |
| 165 | ON=Cc1ccc[nH]1 |
| 118 | Cc1cccc2cc3ccc4ccccc4c3cc12 |
| 51 | Ic1cccc(OCc2ccccc2)c1 |
| 214 | Cc1cc(=O)n2nc(C(F)(F)F)nc2[nH]1 |
| 28.5 | Fc1ccc(Br)nc1 |
| 163 to 164 | O=C(O)c1cnc(NCc2ccccc2)s1 |
| 95 to 99 | Cc1cc(C)c(S(=O)(=O)n2ccnc2)c(C)c1 |
| 90 | CC(=O)c1ccc[nH]1 |
| 175 | CC1=NN(CN2CCOCC2)C(=O)/C1=N\Nc1cc(Cl)c(Cl)cc1Cl |
| 154 | NNC(=O)CC(=O)NN |
| 299 | NC(Cc1c[nH]c2ccc(O)cc12)C(=O)O (racemic) |
| 77 to 79 | O=C(Cl)c1cnn(-c2ccc([N+](=O)[O-])cc2)c1C(F)(F)F |
| 146 | CCCCc1cc2ccccc2c(OCCN(C)C)n1 |
| 37 | CCOC(=O)Cc1ccccc1Br |
| 163 to 165 | O=C(O)C=Cc1c(F)cccc1Cl |
| 223 to 226 | COc1cc2c(cc1OC)C(=S)NCC2 |
| 123 | O=[N+]([O-])c1cc2c(cc1CO)OCO2 |
| 157 to 159 | Cc1ccc(O)c(CO)n1 |
| 84 to 86 | N#Cc1ccc2occc2c1 |
| 111 | COC1OC(CNC(=O)N(CCCl)N=O)C(O)C(O)C1O (configuration not stated) |
| 169 to 174 | Cc1ccc2occ(C=O)c(=O)c2c1 |
| 49 | Clc1cnc(Cl)c(Cl)c1 |
| 227 to 228 | CC1(C)N[C@H](C(=O)O)Cc2c1[nH]c1ccccc21 |

| melting point [°C] | Structure (SMILES) |
| --- | --- |
| -57.1 | CCCCN1CCOCC1 |
| 300 | CN(c1ccc2cc3ccc4c(c3nc2c1)COCN4)S(C)(=O)=O |
| 135 to 139 | COc1cc2c(cc1OC)C(CO)NCC2 (configuration not stated) |
| 133 to 135 | CC(C)(C)OC(=O)N1CCC[C@@H]1C(=O)O |
| 336 | O=C(Nc1ccc(N=Nc2ccc(N=Nc3ccc(NC(=O)c4ccccc4)cc3)cc2)cc1)c1ccccc1 |
| 309 | CC(=O)NC1C2CCC(C)(C1NC(C)=O)C2(C)C (configuration not stated) |
| 124 to 131 | N#CC(c1ccc(Cl)nn1)c1c(Cl)cccc1Cl (configuration not stated) |
| 64 to 65 | CC1CC(=O)c2cc(Cl)ccc2S1 (configuration not stated) |
| 199 | O=[N+]([O-])c1cccc(-c2nnc3n2NC(c2ccc(Cl)cc2)S3)c1 (configuration not stated) |
| 70.8 | CC1=C[C@H](O)[C@H]2C[C@@H]1C2(C)C |
| 301 to 303 | CC(=O)c1c(C)n(O)c2ccc3nonc3c12 |
| 94 | Brc1ccc(Br)nc1 |
| 201 to 203 | O=C(O)c1cc(-c2ccc(Br)cc2)oc1C(F)(F)F |
| 230 | Sc1ncccn1 |
| 247 to 249 | Cc1c(-c2ccccc2)sc2ncnc(O)c12 |
| 73 to 75 | CNCc1c(C)nc2ccccn12 |
| 96 to 99 | S=C(Oc1ccccn1)Oc1ccccn1 |
| 102 to 104 | C(=Nc1ccccc1Nc1ccccc1N=Cc1ccccc1)c1ccccc1 |
| 94 to 97 | O=C1CSCC(=O)O1 |
| 88 to 89 | Brc1sc(-c2ccccc2)nc1-c1ccccc1 |
| 38 to 40 | Cc1ccc(S(=O)(=O)Cl)cc1[N+](=O)[O-] |
| 12.5 | OCCCCCCCCCCCl |

| Structure (SMILES) | melting point [°C] |
| --- | --- |
| O=P1(N(CCCl)CCCl)NCCCO1 (configuration not stated) | 51.5 |
| O=C1c2ccccc2C1Cl (configuration not stated) | 67 |
| O=C1C2=C(NC1C(=O)c1ccc(Br)cc1)Oc1c(c(=O)oc3ccccc13)C2c1ccc(Br)cc1 (configuration not stated) | 230 |
| CC(C)CC(N)P(=O)(O)O (configuration not stated) | 274 to 280 |
| C=C(Br)CC1(C(C)C)C(=O)NC(=O)NC1=O | 177 |
| O=C(O)C(O)(c1ccccc1)C1CCCCC1 (configuration not stated) | 163 to 164 |
| COc1cc(Cl)c(OC)cc1Cl | 134 |
| CN1CCN(Cc2cccc(I)c2)CC1 | 81 to 83 |
| CNC(=O)Oc1cc(C)c(SC)c(C)c1 | 120 |
| Cc1cc(O)no1 | 86.5 |
| CCC(C)c1cc([N+](=O)[O-])cc([N+](=O)[O-])c1O (configuration not stated) | 40 |
| C[C@]12CCC(=O)C(Br)[C@H]1CC[C@@H]1[C@@H]2CC[C@]2(C)C(O)CC[C@@H]12 (some centres not stated) | 143 |
| Cc1cc([N+](=O)[O-])ccc1O | 96 |
| CCC(C)I (configuration not stated) | -104 |
